According to PMC6979384, “Characterization of the plant homeodomain (PHD) reader family for their histone tail interactions” (Epigenetics & Chromatin, 2020):

What was measured:
Experiment in all cases: Histone peptide microarray
Type in all cases: binding, human
[1] = tested on: DIDO1; details: sheet "Array Heatmap", total n = 4; for Array Heatmap value (peptide array signal): DIDO1, each array performed twice
Summary of the method: (§1)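 Purified PHD finger domains fused to GST are screened against 293 synthetic histone peptides bearing one or several post-translational modifications. The protein is used at 0.5 μM, and the signal from four replicate arrays is averaged, with standard deviation given.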

[2] = tested on: MLL5; details: sheet "Array Heatmap", total n = 4; for Array Heatmap value (peptide array signal): MLL5, each array performed twice
Summary of the method: as §1

[3] = tested on: RAG2; details: sheet "Array Heatmap", total n = 4; for Array Heatmap value (peptide array signal): RAG2, each array performed twice
Summary of the method: as §1

[4] = tested on: KDM5B (3); details: sheet "Array Heatmap", total n = 4; for Array Heatmap value (peptide array signal): KDM5B (3), each array performed twice
Summary of the method: as §1

[5] = tested on: TAF3; details: sheet "Array Heatmap", total n = 4; for Array Heatmap value (peptide array signal): TAF3, each array performed twice
Summary of the method: as §1

[6] = tested on: CHD5 (PPCC); details: sheet "Array Heatmap", total n = 4; for Array Heatmap value (peptide array signal): CHD5 (PPCC), each array performed twice
Summary of the method: as §1

[7] = tested on: ING1; details: sheet "Array Heatmap", total n = 4; for Array Heatmap value (peptide array signal): ING1, each array performed twice
Summary of the method: as §1

[8] = tested on: ING3; details: sheet "Array Heatmap", total n = 4; for Array Heatmap value (peptide array signal): ING3, each array performed twice
Summary of the method: as §1

[9] = tested on: KDM5A (1); details: sheet "Array Heatmap", total n = 4; for Array Heatmap value (peptide array signal): KDM5A (1), each array performed twice
Summary of the method: as §1

[10] = tested on: PHF23; details: sheet "Array Heatmap", total n = 4; for Array Heatmap value (peptide array signal): PHF23, each array performed twice
Summary of the method: as §1

[11] = tested on: ING5; details: sheet "Array Heatmap", total n = 4; for Array Heatmap value (peptide array signal): ING5, each array performed twice
Summary of the method: as §1

[12] = tested on: ING2; details: sheet "Array Heatmap", total n = 4; for Array Heatmap value (peptide array signal): ING2, each array performed twice
Summary of the method: as §1

[13] = tested on: PHF13; details: sheet "Array Heatmap", total n = 4; for Array Heatmap value (peptide array signal): PHF13, each array performed twice
Summary of the method: as §1

[14] = tested on: CHD4 (PPCC); details: sheet "Array Heatmap", total n = 4; for Array Heatmap value (peptide array signal): CHD4 (PPCC), each array performed twice
Summary of the method: as §1

[15] = tested on: PHF8; details: sheet "Array Heatmap", total n = 4; for Array Heatmap value (peptide array signal): PHF8, each array performed twice
Summary of the method: as §1

[16] = tested on: PHF21A; details: sheet "Array Heatmap", total n = 4; for Array Heatmap value (peptide array signal): PHF21A, each array performed twice
Summary of the method: as §1

[17] = tested on: PHRF1 (RP); details: sheet "Array Heatmap", total n = 4; for Array Heatmap value (peptide array signal): PHRF1 (RP), each array performed twice
Summary of the method: as §1

[18] = tested on: CHD5 (PCC); details: sheet "Array Heatmap", total n = 4; for Array Heatmap value (peptide array signal): CHD5 (PCC), each array performed twice
Summary of the method: as §1

[19] = tested on: KDM4C (TTP); details: sheet "Array Heatmap", total n = 4; for Array Heatmap value (peptide array signal): KDM4C (TTP), each array performed twice
Summary of the method: as §1

[20] = tested on: DPF2 (PPC2W2); details: sheet "Array Heatmap", total n = 4; for Array Heatmap value (peptide array signal): DPF2 (PPC2W2), each array performed twice
Summary of the method: as §1

[21] = tested on: ING4; details: sheet "Array Heatmap", total n = 4; for Array Heatmap value (peptide array signal): ING4, each array performed twice
Summary of the method: as §1

[22] = tested on: AIRE (PP); details: sheet "Array Heatmap", total n = 4; for Array Heatmap value (peptide array signal): AIRE (PP), each array performed twice
Summary of the method: as §1

[23] = tested on: MORC3 (CW); details: sheet "Array Heatmap", total n = 4; for Array Heatmap value (peptide array signal): MORC3 (CW), each array performed twice
Summary of the method: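 Readout is array binding signal, reported as the mean and standard deviation over four replicates. Each purified GST-fused PHD domain was incubated at 0.5 μM with a library of 293 modified histone peptides.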

[24] = tested on: KDM5A (3); details: sheet "Array Heatmap", total n = 4; for Array Heatmap value (peptide array signal): KDM5A (3), each array performed twice
Summary of the method: as §1

[25] = tested on: TRIM66 (PB); details: sheet "Array Heatmap", total n = 4; for Array Heatmap value (peptide array signal): TRIM66 (PB), each array performed twice
Summary of the method: as §1

[26] = tested on: KDM7A; details: sheet "Array Heatmap", total n = 4; for Array Heatmap value (peptide array signal): KDM7A, each array performed twice
Summary of the method: as §1

[27] = tested on: KDM5B (1); details: sheet "Array Heatmap", total n = 4; for Array Heatmap value (peptide array signal): KDM5B (1), each array performed twice
Summary of the method: as §1

[28] = tested on: BAZ2B; details: sheet "Array Heatmap", total n = 4; for Array Heatmap value (peptide array signal): BAZ2B, each array performed twice
Summary of the method: as §1

[29] = tested on: PHF2; details: sheet "Array Heatmap", total n = 4; for Array Heatmap value (peptide array signal): PHF2, each array performed twice
Summary of the method: as §1

[30] = tested on: SP140L; details: sheet "Array Heatmap", total n = 4; for Array Heatmap value (peptide array signal): SP140L, each array performed twice
Summary of the method: as §1

[31] = tested on: BPTF (PB); details: sheet "Array Heatmap", total n = 4; for Array Heatmap value (peptide array signal): BPTF (PB), each array performed twice
Summary of the method: as §1

[32] = GST-tagged reader, histone peptide array

H3.3K18ac + K23ac + K27ac: H3.3 15-34
Array Heatmap signal, DIDO1 [1, 32]: 0.6174 | Array Heatmap signal, MLL5 [2, 32]: 0.5276 | Array Heatmap signal, RAG2 [3, 32]: 0.2141 | Array Heatmap signal, KDM5B (3) [4, 32]: 0.4033 | Array Heatmap signal, TAF3 [5, 32]: 0.2149 | Array Heatmap signal, CHD5 (PPCC) [6, 32]: 0.4663 | Array Heatmap signal, ING1 [7, 32]: 0.4856 | Array Heatmap signal, ING3 [8, 32]: 0.4284 | Array Heatmap signal, KDM5A (1) [9, 32]: 0.4013 | Array Heatmap signal, PHF23 [10, 32]: 0.5184 | Array Heatmap signal, ING5 [11, 32]: 0.2999 | Array Heatmap signal, ING2 [12, 32]: 0.5898 | Array Heatmap signal, PHF13 [13, 32]: 0.5394 | Array Heatmap signal, CHD4 (PPCC) [14, 32]: 0.4939 | Array Heatmap signal, PHF8 [15, 32]: 0.3485 | Array Heatmap signal, PHF21A [16, 32]: 0.4029 | Array Heatmap signal, PHRF1 (RP) [17, 32]: 0.3802 | Array Heatmap signal, CHD5 (PCC) [18, 32]: 0.7415 | Array Heatmap signal, KDM4C (TTP) [19, 32]: 0.4047 | Array Heatmap signal, DPF2 (PPC2W2) [20, 32]: 0.5923 | Array Heatmap signal, ING4 [21, 32]: 0.3863 | Array Heatmap signal, AIRE (PP) [22, 32]: 0.3882 | Array Heatmap signal, MORC3 (CW) [23, 32]: 0.3178 | Array Heatmap signal, KDM5A (3) [24, 32]: 0.3827 | Array Heatmap signal, TRIM66 (PB) [25, 32]: 0.509 | Array Heatmap signal, KDM7A [26, 32]: 0.2948 | Array Heatmap signal, KDM5B (1) [27, 32]: 0.6049 | Array Heatmap signal, BAZ2B [28, 32]: 0.3976 | Array Heatmap signal, PHF2 [29, 32]: 0.5078 | Array Heatmap signal, SP140L [30, 32]: 0.3146 | Array Heatmap signal, BPTF (PB) [31, 32]: 0.2983

H3.3K27bhb (15-34): H3.3 15-34
Array Heatmap value (peptide array signal) [1]: 0.6388 | Array Heatmap value (peptide array signal) [2]: 0.5648 | Array Heatmap value (peptide array signal) [3]: 0.2325 | Array Heatmap value (peptide array signal) [4]: 0.4143 | Array Heatmap value (peptide array signal) [5]: 0.2621 | Array Heatmap value (peptide array signal) [6]: 0.5245 | Array Heatmap value (peptide array signal) [7]: 0.5173 | Array Heatmap value (peptide array signal) [8]: 0.4499 | Array Heatmap value (peptide array signal) [9]: 0.4361 | Array Heatmap value (peptide array signal) [10]: 0.5306 | Array Heatmap value (peptide array signal) [11]: 0.34 | Array Heatmap value (peptide array signal) [12]: 0.6144 | Array Heatmap value (peptide array signal) [13]: 0.6011 | Array Heatmap value (peptide array signal) [14]: 0.5447 | Array Heatmap value (peptide array signal) [15]: 0.363 | Array Heatmap value (peptide array signal) [16]: 0.4386 | Array Heatmap value (peptide array signal) [17]: 0.4098 | Array Heatmap value (peptide array signal) [18]: 0.7166 | Array Heatmap value (peptide array signal) [19]: 0.4386 | Array Heatmap value (peptide array signal) [20]: 0.6281 | Array Heatmap value (peptide array signal) [21]: 0.4357 | Array Heatmap value (peptide array signal) [22]: 0.4047 | Array Heatmap value (peptide array signal) [23]: 0.3496 | Array Heatmap value (peptide array signal) [24]: 0.404 | Array Heatmap value (peptide array signal) [25]: 0.6188 | Array Heatmap value (peptide array signal) [26]: 0.312 | Array Heatmap value (peptide array signal) [27]: 0.6279 | Array Heatmap value (peptide array signal) [28]: 0.4313 | Array Heatmap value (peptide array signal) [29]: 0.5233 | Array Heatmap value (peptide array signal) [30]: 0.3378 | Array Heatmap value (peptide array signal) [31]: 0.3432

H3.3K27hxo (15-34): H3.3 15-34
Array Heatmap value (peptide array signal) [1]: 0.6054 | Array Heatmap value (peptide array signal) [2]: 0.4892 | Array Heatmap value (peptide array signal) [3]: 0.1931 | Array Heatmap value (peptide array signal) [4]: 0.3693 | Array Heatmap value (peptide array signal) [5]: 0.2046 | Array Heatmap value (peptide array signal) [6]: 0.3985 | Array Heatmap value (peptide array signal) [7]: 0.4956 | Array Heatmap value (peptide array signal) [8]: 0.3628 | Array Heatmap value (peptide array signal) [9]: 0.3701 | Array Heatmap value (peptide array signal) [10]: 0.4877 | Array Heatmap value (peptide array signal) [11]: 0.2604 | Array Heatmap value (peptide array signal) [12]: 0.5803 | Array Heatmap value (peptide array signal) [13]: 0.4541 | Array Heatmap value (peptide array signal) [14]: 0.4698 | Array Heatmap value (peptide array signal) [15]: 0.2775 | Array Heatmap value (peptide array signal) [16]: 0.3552 | Array Heatmap value (peptide array signal) [17]: 0.3528 | Array Heatmap value (peptide array signal) [18]: 0.595 | Array Heatmap value (peptide array signal) [19]: 0.3245 | Array Heatmap value (peptide array signal) [20]: 0.5523 | Array Heatmap value (peptide array signal) [21]: 0.3406 | Array Heatmap value (peptide array signal) [22]: 0.3038 | Array Heatmap value (peptide array signal) [23]: 0.2947 | Array Heatmap value (peptide array signal) [24]: 0.3948 | Array Heatmap value (peptide array signal) [25]: 0.4904 | Array Heatmap value (peptide array signal) [26]: 0.2316 | Array Heatmap value (peptide array signal) [27]: 0.5964 | Array Heatmap value (peptide array signal) [28]: 0.3359 | Array Heatmap value (peptide array signal) [29]: 0.4925 | Array Heatmap value (peptide array signal) [30]: 0.2976 | Array Heatmap value (peptide array signal) [31]: 0.2696
